Data: publication PMC7155171, “Probing the Open Global Health Chemical Diversity Library for Multistage-Active Starting Points for Next-Generation Antimalarials” (ACS Infectious Diseases, 2020)
pIC50: −log10 of the molar value. Like-named read-outs stand apart in the source and are kept apart here.

How the values were obtained:
[1] = tested on: P. falciparum Dd2 (PfLuc) line expressing firefly luciferase, asexual blood stage; experiment: microbe, parasite or virus in culture; assay type: cell-based, Plasmodium falciparum; conditions: Plasmodium falciparum
P. falciparum Dd2 = experiment: SYBR green I asexual blood stage proliferation assay (96 h); assay type: cell-based, Plasmodium falciparum; conditions: for pIC50 / Emax: Plasmodium falciparum
[2] = DD2, read-out: CDD P. falciparum Luciferase ABS 11-pt Reconfirmation Dose Response (48hr): IC50 (μM), 11-pt dose response, 48hr
[3] = DD2, 8-pt dose response, 96hr, read-out: CDD P. falciparum Luciferase ABS 8-pt Reconfirmation Dose Response (96hr): IC50
[4] = DD2, 8-pt dose response, 96hr, read-out: CDD P. falciparum Luciferase ABS 8-pt Reconfirmation Dose Response (96hr): Maximum inhibition (%)
[5] = DD2, 11-pt dose response, 48hr, read-out: CDD P. falciparum Luciferase ABS 11-pt Reconfirmation Dose Response (48hr): Maximum inhibition (%)
[6] = DD2, 11-pt dose response, 96hr, read-out: CDD P. falciparum Luciferase ABS 11-pt Reconfirmation Dose Response (96hr): IC50
[7] = DD2, 11-pt dose response, 96hr, read-out: CDD P. falciparum Luciferase ABS 11-pt Reconfirmation Dose Response (96hr): Maximum inhibition (%)
[8] = DD2, Sybr Green I, 11-pt dose response, 96hr, read-out: CDD P. falciparum Sybr Green I ABS 11-pt Reconfirmation Dose Response (96hr): IC50
[9] = DD2, Sybr Green I, 11-pt dose response, 96hr, read-out: CDD P. falciparum Sybr Green I ABS 11-pt Reconfirmation Dose Response (96hr): Maximum inhibition (%)
[10] = DD2, read-out: P. falciparum Luciferase ABS 11-pt Reconfirmation Dose Response (48hr): IC50, 11-pt dose response, 48hr
[11] = DD2, 8-pt dose response, 96hr, read-out: P. falciparum Luciferase ABS 8-pt Reconfirmation Dose Response (96hr): IC50
[12] = DD2, 8-pt dose response, 96hr, read-out: P. falciparum Luciferase ABS 8-pt Reconfirmation Dose Response (96hr): Maximum inhibition (%)
[13] = DD2, 11-pt dose response, 48hr, read-out: P. falciparum Luciferase ABS 11-pt Reconfirmation Dose Response (48hr): Maximum inhibition (%)
[14] = DD2, 11-pt dose response, 96hr, read-out: P. falciparum Luciferase ABS 11-pt Reconfirmation Dose Response (96hr): IC50
[15] = DD2, 11-pt dose response, 96hr, read-out: P. falciparum Luciferase ABS 11-pt Reconfirmation Dose Response (96hr): Maximum inhibition (%)
[16] = DD2, 11-pt dose response, 96hr, read-out: P. falciparum Sybr Green I ABS 11-pt Reconfirmation Dose Response (96hr): IC50
[17] = DD2, 11-pt dose response, 96hr, read-out: P. falciparum Sybr Green I ABS 11-pt Reconfirmation Dose Response (96hr): Maximum inhibition (%)

| Compound | IC50 [1, 2] | pIC50 [1, 3] | Emax [1, 4] | Emax [1, 5] | pIC50 [1, 6] | Emax [1, 7] | pIC50 (P. falciparum Dd2; [8]) | Emax (P. falciparum Dd2; [9]) | also measured |
| --- | --- | --- | --- | --- | --- | --- | --- | --- | --- |
| Cc1ccc(CNCc2cccc3cccnc23)c(OC2CCOC2)c1 (centres unmarked) [DDD01075119] | 3.77 µM | 6.24 | 83.2% | 87.5% | 5.84 | 98.4% | < 5.38 | 64.7% | – |
| CCN(CC)CCN(C)c1nc(-c2ccc(Cl)cc2)nc2c1CNC2 [DDD01247796] | – | – | – | – | – | – | – | – | pIC50 [1, 10]: 5.46; pIC50 [1, 11]: 5.82; Emax [1, 12]: 94.9%; Emax [1, 13]: 74.2%; pIC50 [1, 14]: 5.55; Emax [1, 15]: 99.3%; pIC50 (P. falciparum Dd2; [16]): 5.37; Emax (P. falciparum Dd2; [17]): 89.9% |
| Cc1ncc(CN(Cc2ccccn2)Cc2ccccc2Cl)n1C [DDD01058742] | 3.44 µM | 6.29 | 86.1% | 74% | 6.00 | 94.5% | 5.81 | 67.5% | – |
| Cc1cc(Br)cnc1NCCN1CCC(N(C)C)CC1 [DDD01079597] | 7.01 µM | 6.29 | 92.4% | 87.3% | 5.94 | 99.5% | 5.50 | 92.7% | – |
| Cn1ccnc1CN(Cc1ccccn1)Cc1ccccc1Cl [DDD01058741] | 2.68 µM | 6.23 | 93.9% | 94.3% | 6.23 | 100% | 5.21 | 83.5% | – |
| c1cnn(C[C@@H]2C[C@@H]3CN(CC4CC4)CC[C@@H]3N2c2nccs2)c1 [DDD01081619] | – | – | – | – | – | – | – | – | pIC50 [1, 10]: 5.59; pIC50 [1, 11]: 5.83; Emax [1, 12]: 94.2%; pIC50 [1, 14]: 5.73; Emax [1, 15]: 99.5%; pIC50 (P. falciparum Dd2; [16]): 5.57; Emax (P. falciparum Dd2; [17]): 73.6% |
| CCN(CC)Cc1ccccc1NC(=O)N(C)Cc1ccccc1O [DDD01074443] | 3.95 µM | 6.06 | 90% | 89.7% | 5.49 | 95.8% | 5.20 | 87.8% | – |
| COc1ccccc1C1(CNCc2cccc(O)c2)CCOCC1 [DDD01075721] | 10.3 µM | 6.07 | 85.5% | 67.7% | 5.66 | 90.3% | < 5.38 | 68.7% | – |
| CC[C@H]1CN2CC[C@H]1C[C@@H]2CNCc1ccc(OC(F)(F)F)cc1 [DDD01025218] | 2.91 µM | 5.97 | 92.1% | 93% | < 5.86 | 100% | 5.38 | 89.4% | – |
| Cc1ccc(CNC(CN2CCN(C)CC2)c2ccccc2)cc1 (centres unmarked) [DDD01079898] | 4.31 µM | 6.59 | 91.3% | 88.2% | 5.92 | 98.8% | 5.87 | 95.9% | – |
| CC1(C)CC(N(Cc2cccnc2)Cc2cccc(F)c2)CC(C)(C)N1 [DDD01060979] | 3.32 µM | 6.52 | 88% | – | < 5.86 | 98.4% | 5.07 | 79.9% | – |
| Cc1nc(-c2cc(Cl)cc3c2OC(CN)C3)c[nH]1 (centres unmarked) [DDD01251343] | > 12.5 µM | 6.17 | – | -0.28% | 5.43 | 84.3% | < 5.86 | – | – |
| c1ccc(CN2CCCC3(CCN(Cc4cccs4)C3)C2)nc1 (centres unmarked) [DDD01029520] | – | – | – | – | – | – | – | – | pIC50 [1, 10]: 5.20; pIC50 [1, 11]: 5.71; Emax [1, 12]: 83.5%; Emax [1, 13]: 51.8%; pIC50 [1, 14]: 5.53; Emax [1, 15]: 86.9%; pIC50 (P. falciparum Dd2; [16]): < 5.38; Emax (P. falciparum Dd2; [17]): 58% |
| Clc1ccc(C2(CNC3=NCCN3)CCCCC2)cc1 [DDD01067446] | 2.9 µM | 6.66 | 96.3% | 97.1% | 6.14 | 99.6% | 5.89 | 99.8% | – |
| CCN(Cc1c(F)cccc1Cl)c1cc(C2CCNCC2)nc(C)n1 [DDD01245231] | 0.763 µM | 6.26 | 91.3% | 99.4% | 6.30 | 99.8% | 5.60 | 81.1% | – |
| COc1ccc(C(=O)NCCCOC(C)c2ccccc2)c(OC)c1 (centres unmarked) [DDD01071935] | 9.88 µM | 5.99 | – | 67.4% | 5.49 | 90.2% | < 5.38 | 72.8% | – |
| c1cnc(N2CCC(c3csc(Nc4cnccn4)n3)CC2)nc1 [DDD01056714, C1CN(CCC1c1csc(Nc2cnccn2)n1)c1ncccn1] | – | – | – | – | – | – | – | – | IC50 ([1]; DD2, read-out: CDD P. falciparum Luc 11pt dose response (96hr, n=2): IC50 (μM), 96hr, 11-point, n=2): 0.0286 µM; IC50 ([1]; DD2, read-out: CDD P. falciparum Luciferase 11pt dose response (48hr, n=2): IC50 (μM), 48hr, 11-point, n=2): 0.0592 µM; Emax ([1]; DD2, 48hr, 11-point, read-out: CDD P. falciparum Luciferase ABS 11-pt Reconfirmation Dose Response (48hr): Maximum inhibition (%)): 82.6%; Emax ([1]; DD2, 96hr, 11-point, read-out: CDD P. falciparum Luciferase ABS 11-pt Reconfirmation Dose Response (96hr): Maximum inhibition (%)): 94.8%; CDD P. falciparum Sybr Green I ABS Dd2 Dose Response: Maximum measured (%) (P. falciparum Dd2; Dd2, 96 h): 55.9%; pIC50 (P. falciparum Dd2; DD2, 96 h, read-out: CDD P. falciparum Sybr Green I ABS Dd2 Dose Response: IC50): < 5.38 |
| NCC1(c2cccc(Br)c2)CCOCC1 [DDD01079955] | 4.79 µM | 6.08 | 87.3% | 58.8% | 5.79 | 85.9% | < 5.38 | 76.8% | – |
| CC(C)CN1CCCC1c1ccc(C(=O)Nc2cccnc2)s1 (centres unmarked) [DDD01247321] | 4.09 µM | 6.11 | 91.9% | 94.3% | 5.67 | 99.9% | 5.32 | 91.6% | – |
| CC(C)C(CNCc1cccc2c1OCO2)N1CCOCC1 (centres unmarked) [DDD01077478] | > 12.5 µM | 6.25 | 86.4% | 52.1% | 5.59 | 85.2% | 5.72 | 62.1% | – |
| CC(NCCN1CCC(N(C)C)CC1)c1ccc(Cl)s1 (centres unmarked) [DDD01077862] | 4.33 µM | 6.04 | 87.7% | 83.2% | 5.87 | 97.3% | 5.54 | 89% | – |
| CC(C)n1ccnc1C1CCCN(c2ccnc3ccccc23)C1 (centres unmarked) [DDD01257414] | 2.09 µM | 6.10 | 94.6% | 95.8% | 5.79 | 99.7% | 5.71 | 98.5% | – |
| O=S(=O)(NCC(c1ccsc1)N1CCCCCC1)c1cccs1 (centres unmarked) [DDD01027501] | – | – | – | – | – | – | – | – | pIC50 [1, 10]: < 4.90; pIC50 [1, 11]: 5.71; Emax [1, 12]: 83.7%; Emax [1, 13]: 44%; pIC50 [1, 14]: 5.06; pIC50 (P. falciparum Dd2; [16]): 5.11; Emax (P. falciparum Dd2; [17]): 69.9% |
| Cc1cc(Cl)ccc1S(=O)(=O)NCC(C)N1CCN(C)CC1 (centres unmarked) [DDD01071406] | – | – | – | – | – | – | – | – | pIC50 [1, 10]: 5.20; pIC50 [1, 11]: 5.78; Emax [1, 12]: 87.3%; Emax [1, 13]: 56.6%; pIC50 [1, 14]: 5.31; Emax [1, 15]: 86.6%; pIC50 (P. falciparum Dd2; [16]): < 5.38 |
| CC(C)(C)C(=O)N1C[C@H](c2ccsc2)[C@H]2CN(C3CCCCC3)CC[C@H]21 [DDD01058940] | > 12.5 µM | 6.08 | 83.6% | 59.1% | 5.69 | 90.2% | 5.06 | 74.2% | – |
| CC(C)N1CCC2(CCCN(c3nccc(C(F)(F)F)n3)C2)CC1 [DDD01028790] | 3.12 µM | 6.21 | 89.3% | 69% | 5.88 | 91.1% | 5.01 | 76.4% | – |
| NCC1Cc2cc(-c3nccc(N4CCC(O)CC4)n3)cc(F)c2O1 (centres unmarked) [DDD01254054] | 2.43 µM | 6.23 | 94.6% | 91.4% | 5.73 | 98.9% | 5.60 | 92% | – |
| CC(O)CN1CCC(CNCc2cccc(C(F)(F)F)c2)CC1 (centres unmarked) [DDD01300262] | – | – | – | – | – | – | – | – | pIC50 [1, 10]: 5.01; pIC50 [1, 11]: 5.80; Emax [1, 12]: 89.5%; Emax [1, 13]: 69.7%; pIC50 [1, 14]: 5.32; Emax [1, 15]: 92.7%; pIC50 (P. falciparum Dd2; [16]): 5.61; Emax (P. falciparum Dd2; [17]): 91.1% |
